Measurements: patent US20230358677A1, “Reversible Excited-State Photoacids and Photobases as Dynamic Fluorescence Sensors of Protonic Species” (California Institute of Technology, priority 2022, published 2023)

What was measured:
[1] = Stern-Volmer analysis of quenching of HPhenDS by proton acceptors; format: physicochemical; conditions: quenching of aqueous HPhenDS, constant ionic strength
Procedure: ESPT availability and ESPT to water curves are calculated from steady-state absorption and photoluminescence data for 15 μM HPhenDS across the pH window indicated at constant ionic strength (except for pH values below 0). Concentrations of all buffers were simulated to be 1 M total salt added. Ability to sense is predicted by estimating total concentration at a given pH value based on the pKa value of the buffer and fit to a Henderson-Hasselbalch-type equation. The resultant concentration is then multiplied by the ESPT availability of HPhenDS at each pH value.
FIGS. 21A and 21B illustrate Stern-Volmer analysis for quenching constant Ksv in accordance with an embodiment.

[2] = proton acceptor, aqueous; cited from earlier work
[3] = 1 M aqueous solution titrated with 4 M KOH
[4] = Acid-base titrations of NS—NH2 in the presence of proton-accepting quenchers (modified Stern-Volmer, Equation 7); conditions: for pKa,BH+ (Equation 7), value after the slash: equals titration-curve values of b153; for k+q,corr: corrected rate constant, ESPT from NS—NH2* to the proton acceptor; for k+q: direct excited-state proton transfer from NS—NH2* to the proton acceptor; for KSV,quencher (Equation 7) / KSV,quencher (traditional linearized Stern-Volmer): quenching of NS—NH2*
Source text: Assuming that photoluminescence quenching occurs by ESPT from NS—NH2* to OH^−(aq), the data support that when aOH− is small (i.e. at pH less than about 12), ESPT can be quite slow compared to the excited-state lifetime of NS—NH2*, due to mass action (FIG. 2B). The non-unity quantum yield for ESPT in weakly alkaline aqueous solutions afforded us an opportunity to evaluate a series of aqueous proton-accepting quenchers (glycine (Gly(aq)), proline (Pro(aq)), and trifluoroethanol (TFE(aq))) for their ability to undergo ESPT with NS—NH2*. In order to clearly observe ESPT to a species other than OH^−(aq), added proton-accepting quenchers had to be more basic (ΔG^o<0), or slightly more acidic (ΔG^o>0), than NS—NH2*, and less basic than OH^−(aq). […] As pH values approach and pass the pKa of the proton-accepting quencher, the rate of ESPT slows from a decrease in the concentration of proton-accepting quencher due to its protonation. This is supported by observations from analogous experiments performed using different concentrations of quencher. Best fits of measured photoluminescence spectroscopy data to a modified Stern-Volmer equation for a two-quencher system, including both OH^−(aq) and proton-accepting quencher, provided bimolecular rate constants for deprotonation of the photoacid by each quencher,
where KSV,OH−=K*^−1b and KSV,quencher=k+q,quencherτo,PAH* are the dynamic quenching constants for excited-state proton transfer to OH^−(aq) and proton-accepting quencher, respectively, k+q,quencher is the bimolecular rate constant (M^−1 s^−1) for ESPT quenching by the proton-accepting quencher, and the sum of the activities of B and BH^+ is approximated as the total concentration of the proton-accepting quencher. While the pKa of the proton-accepting quencher is an adjustable parameter during best fitting, extracted pKa values are close to pKa values obtained from the acid-base titration curves of the proton-accepting quenchers. Changing the proton-accepting quencher to one with a smaller pKa value results in a slower non-diffusion-limited rate constant for ESPT with NS—NH2*. The observation of ESPT directly from NS—NH2* to each of two different amino acids, Gly and Pro, is notable, and may have important implications for biological systems where direct protonation of proteins can induce cellular responses.
Table 2 lists driving-force-dependent rate constants for direct excited-state proton transfer from NS—NH2* to various proton-accepting quenchers.
Several embodiments use the steady-state ultraviolet-visible electronic absorption and photoluminescence spectroscopy for characterization. Equal amounts of aromatic amine photoacids are portioned into five separate 100 mL volumetric flasks. For the non-proton-accepting quencher experiments, the five flasks are filled to the volumetric marker with aqueous solutions of 1 M HCl, 1 M KOH, 2 M KOH, 3 M KOH, and 4 M KOH. The aqueous 1 M KOH solution is titrated with the aqueous 1 M HCl solution to reach the desired pH values from 14 to 6, and the H^+ activities are measured using a pH meter (pH/Ion 510). […] Electronic absorption spectra and photoluminescence spectra are acquired using absorbance and fluorescence spectrometer(s), using a square-bottom quartz cuvette (1 cm path length) at room temperature. Electronic absorption spectra are baselined on a spectrum of deionized water and were corrected for scattering of light. Photoluminescence spectra are recorded by exciting with 310 nm light, slit widths for the excitation and emission monochromators were set to 5 nm, and the PMT detector voltage is set to 600 V. Photoluminescence spectra are corrected for changes in solution refractive index, inner filter effects and the wavelength-dependent correction factor of the fluorimeter.

[5] = cited from earlier work
[6] = conjugate acid of proton acceptor

Molecule | KSV [1] | Diffusion Coefficient [2] | pKa,BH+ (Equation 7), value before the slash [4, 6] | k+q,corr [4] | k+q [4] | further results
CC(=O)O [Acetate] | about 0.1548 M^−1 | – | – | – | – | –
O=C(O)O [Bicarbonate] | about 0.6051 M^−1 | – | – | – | – | –
O=C([O-])[O-].[Na+].[Na+] [Carbonate] | about 1.02 M^−1 | – | – | – | – | –
O=CO [Formate] | about 0.4623 M^−1 | – | – | – | – | –
NCC(=O)O [Glycine] | – | 10.60 10^−6 cm^2/s | 9.7 | 1.44 ± 0.07 10^8 M^−1 s^−1 | 0.39 ± 0.02 10^8 M^−1 s^−1 | pKa from acid-base titration curve [3]: 9.9; bimolecular rate constant, deprotonation of NS—NH2* by the quencher ([4]; 1 M total quencher): (0.39±0.02)×10^8 M^−1 s^−1; bimolecular rate constant, deprotonation of NS—NH2* by the quencher ([4]; 2 M total glycine): (0.90±0.04)×10^8 M^−1 s^−1; pKa,BH+ (Equation 7), value after the slash [4, 6]: 9.9; KSV,quencher (Equation 7) ([4]; 1 M total quencher): 0.18 ± 0.01 M⁻¹; KSV,quencher (traditional linearized Stern-Volmer) ([4]; 1 M total quencher): 0.19 ± 0.01 M⁻¹; KSV,quencher (Equation 7) ([4]; 2 M total glycine): 0.20 ± 0.01 M⁻¹
Hydroxide | – | 52.70 10^−6 cm^2/s | 14/— | 100 ± 3 10^8 M^−1 s^−1 | 100 ± 3 10^8 M^−1 s^−1 | –
Phosphate | – | 8.79 10^−6 cm^2/s | – | 22.6 ± 3.8 10^8 M^−1 s^−1 | 5.4 ± 0.9 10^8 M^−1 s^−1 | pKa,BH+ (Equation 7), value before the slash [4]: 11.4/—; bimolecular rate constant, deprotonation of NS—NH2* by the quencher ([4]; 0.17 M total phosphate): (11±2)×10^8 M^−1 s^−1; KSV,quencher (Equation 7) ([4]; 0.17 M total phosphate): 2.2 ± 0.3 M⁻¹; KSV,quencher (traditional linearized Stern-Volmer) ([4]; 0.17 M total phosphate): 3.4 ± 0.1 M⁻¹
Trifluoroethanol | – | 6.00 10^−6 cm^2/s | 12.4 | 58.7 ± 11.5 10^8 M^−1 s^−1 | 11.2 ± 2.2 10^8 M^−1 s^−1 | pKa, literature value [5]: 12.4; pKa from acid-base titration curve [3]: 12.6; bimolecular rate constant, deprotonation of NS—NH2* by the quencher ([4]; 1 M total quencher): (11±2)×10^8 M^−1 s^−1; pKa,BH+ (Equation 7), value after the slash [4, 6]: 12.6; KSV,quencher (Equation 7) ([4]; 1 M total quencher): 5 ± 1 M⁻¹; KSV,quencher (traditional linearized Stern-Volmer) ([4]; 1 M total quencher): 6.2 ± 0.1 M⁻¹
